These are literature values, as cited in patent publication US20230143309A1, “PYRROLOBENZODIAZEPINE ANTIBODY CONJUGATES” (priority 2016, published 2023).

The structures appear in SMILES notation.

For data set [1], the system named is human tumour cell lines. The settings on record: for activity against a range of human tumour cell lines: quoted from UCL REF 2014 impact study.
Data set [2] has as its system human tumour xenograft models. The settings on record: quoted from UCL REF 2014 impact study.

`COc1ccc(C2=CN3C(=O)c4cc(OC)c(OCCCOc5cc6c(cc5OC)C(=O)N5C=C(c7ccc(OC)cc7)C[C@H]5C=N6)cc4N=C[C@@H]3C2)cc1` [SG2202]: the “activity against a range of human tumour cell lines” value in data set [1] is recorded as “picomolar/sub-picomolar activity”. The “activity in human tumour xenograft models” value in data set [2] is listed as “curative activity”.

Regarding `C=C1C[C@H]2C=Nc3cc(OCCCCCOc4cc5c(cc4OC)C(=O)N4CC(=C)C[C@H]4C=N5)c(OC)cc3C(=O)N2C1` [SG2057], the “activity against a range of human tumour cell lines” value in data set [1] is “picomolar/sub-picomolar activity”. For the same compound, the “activity in human tumour xenograft models” value in data set [2] is “curative activity”.

Turning to `C=C1C[C@H]2C=Nc3cc(OCCCOc4cc5c(cc4OC)C(=O)N4CC(=C)C[C@H]4C=N5)c(OC)cc3C(=O)N2C1` [SG2000], the “cytotoxicity relative to SG2057 (less cytotoxic)” value in data set [1] (Hartley et al 2012) was “at least 10 times”.
